Results on twelve substances are retold here after patent US8318898B2, “Synthetic peptides for use as inhibitors of neurotransmitter secretion and as inducers of cellular relaxation” (Universite de Lausanne, priority 2005, dated 2012).

For this experiment, the system named is PC12 cells. Put plainly: Inhibition of [3H]norepinephrine neurosecretion by PC12 cells. It is filed as cell-based, rat. The conditions noted are these: for inhibition of neurotransmitter-evoked secretion: concentration not given, peptide alone; for level of inhibition maintained over the 48 hour period: cultured with PC12 cells for 48 hours in the presence or absence of serum, up to 90%; for inhibition of secretion, stability test: 100 μM. How it is done:
Using the neurosecretion assay described above, peptides fused to the TAT-PTD (L-TAT) were tested for inhibition of neurotransmitters and compared to use of L-TAT alone (SEQ ID NO: 3). In vitro screening for synthetic peptides capable of efficiently and selectively blocking neurotransmitter release in the PC12 cell line grown under defined conditions was performed.
PC12 cells were washed with DMEM-WM (Dulbecco's Modified Eagle Medium (GIBCO cat. no. 31968) completed with 25 units of penicillin and streptomycin each) and loaded for 1-2 h with [^3H] norepinephrine (NE; 0.5 μCi/ml) in DMEM-CM (DMEM-WM complemented with 6% horse serum and 6% fetal calf serum). Cells were washed for 1 h with DMEM-WM, and then washed 2 times at 5-minute intervals. Basal release was determined by a 15-minutes incubation with CaSB-glucose 5 mM K^+ (CaSB-glucose: 140 mM NaCl, 5 mM KCl, 2 mM CaCl2, 11 mM glucose, [pH 7.4]). The peptides were added to the cells at defined concentrations after loading with NE but before induction of secretion. Cells were depolarized with 85 mM K^+ (CaSB-glucose with Na^+ reduced accordingly) for 15 minutes to determine stimulated release. Superfusate (1 ml) was removed to tubes. Adherent cells were solubilized in CaSB-glucose-0.1% Triton (1 ml/well). The quantities of released and non-released radiolabeled neurotransmitter were determined by liquid scintillation counting of cleared superfusates and cell lysates, respectively. Total uptake was calculated by addition of released and retained radioactivity, and the percentage release was as calculated (released counts/total uptake counts)×100. Results were also expressed as percent inhibition of neurosecretion.

A value given as a limit tells only on which side of the number the result lay.

“3D-MRP: SEQ ID NO: 8 (KKKKKFDFKKPFKLDGLDFKRNRK; Synthetic peptide 3DMRPED) [Peptide 3D-MRP]”: the “dose dependence of inhibition of neurosecretion” value was “dose dependent inhibition”.

In the case of “9R-L-Ac-am: SEQ ID NO: 11 (Ac-GYGRRRRRRRRRG-NH2) [Peptide 9R-L-Ac-am]”, the “inhibition of neurotransmitter-evoked secretion” value was “approximately 67%” and the “level of inhibition maintained over the 48 hour period” value is “approximately 80%”.

Turning to “9R-L: SEQ ID NO: 5 (GYGRRRRRRRRRG; Synthetic peptide 9R-L)”, the “inhibition of neurotransmitter-evoked secretion” value was “approximately 70%” and the “level of inhibition maintained over the 48 hour period” value is given as “approximately 80%”.

For “9R-MRP: SEQ ID NO: 22; fusion peptide (GYGRRRRRRRRRGKKKKKKFSFKKPFKLSGLSFKRNRK; Synthetic peptide 9R-MRP)”, the inhibition of secretion result (50 μM (mixture: 50 μM each)) is recorded as “approximately 70%”.

Consider GRRRRRRRRRGYG [Peptide 9Rrev-D], for which the “inhibition of neurotransmitter-evoked secretion” value is “approximately 57%” and the “level of inhibition maintained over the 48 hour period” value is reported as “approximately 80%”.

Consider GYGRRRRRRRRRG [Peptide 9R-D], for which the “inhibition of neurotransmitter-evoked secretion” value is listed as “approximately 65%” and the “level of inhibition maintained over the 48 hour period” value was “approximately 80%”.

Regarding “L-Tat 49-86: SEQ ID NO: 4 (GRKKRRQRRRAHQNSQTHQASLSKQPTSQPRGDPTGKEG; Synthetic peptide L-Tat 49-86)”, the “inhibition of secretion, stability test” value was less than 20% (0 hours); more than 10% (1 hour); 26% (24 hours); 25% (48 hours); 50% (No Serum).

On to “L-Tat-3D-MRP: SEQ ID NO: 10 (GYGRKKRRQRRRGKKKKKFDFKKPFKLDGLDFKRNRK; Synthetic peptide L-Tat-3DMRPED)”, for which the “dose dependence of inhibition of neurosecretion” value was “dose dependent inhibition”.

Consider “L-Tat-ESUP-A: SEQ ID NO: 1; ESUP-A fused to the TAT-PTD (GYGRKKRRQRRRGSNKTRIDEANQRATKMLGSG; Synthetic peptide L-Tat-ESUP-A)”, for which the “dose dependence of inhibition of neurosecretion” value is “dose dependent inhibition”. Moreover, the “inhibition of PC12 neurotransmitter secretion” value (peptide 10 μM) came to 30%. In addition, the “inhibition of PC12 neurotransmitter secretion” value (peptide 50 μM) worked out at 40%. Also, where the note is “peptide 100 μM”, the “inhibition of PC12 neurotransmitter secretion” value is on record as 50%. Under “peptide 250 μM”, the “inhibition of PC12 neurotransmitter secretion” value came to 70%.

On to “L-Tat-MRP: SEQ ID NO: 9 (GYGRKKRRQRRRGKKKKKFSFKKPFKLSGLSFKRNRK; Synthetic peptide L-Tat-MRPED)”, for which the “dose dependence of inhibition of neurosecretion” value is recorded as “dose dependent inhibition”.

Regarding “MRPEDpep: SEQ ID NO: 7 (KKKKKFSFKKPFKLSGLSFKRNRK; Synthetic peptide MRPED)”, the “dose dependence of inhibition of neurosecretion” value was “dose dependent inhibition”. The “inhibition of secretion, stability test” value (0 hours) is reported as more than 20%. The “inhibition of secretion, stability test” value (1 hour) was determined as 23%. Further, where the note is “24 hours”, the “inhibition of secretion, stability test” value stood at 15%. The “inhibition of secretion, stability test” value (No Serum) is 17%.

As for “NH2-SNKTRIDEANQRATKMLGSG-COOH (H-SNKTRIDEANQRATKMLGSG-OH) [ESUP-A, reference compound]”, the “inhibition of neurotransmitter secretion (in words)” value was “only minimal inhibition”. Besides, the “inhibition of PC12 neurotransmitter secretion” value (peptide 100 μM) was determined as 20%.
